Assay results from patent publication US5721234A, “Glutamate receptor antagonists: fused cycloalkylouinoxalinediones” (Warner-Lambert Company, priority 1995, dated 1998).
Structures can show the parent of a compound that is named as a salt.

Key:
[1] = molecular target: kainate site (non-NMDA receptor); experiment: Kainate site (non-NMDA receptor) binding affinity (London and Coyle)
[2] = system: AMPA-induced neuronal damage in primary cortical neuronal cultures; experiment: AMPA-induced neuronal damage in primary cortical neuronal cultures, LDH release; type: cell-based; conditions: long-term exposure to 100 μM AMPA
Protocol: To functionally measure AMPA antagonist activity, the effects of the agent on AMPA-induced neuronal damage in primary cortical neuronal cultures was examined using techniques similar to those outlined by Koh, J.-Y. et al., J. Neurosci, 1990; 10:693. The neuronal damage produced by long-term exposure to 100 μM AMPA was measured by the release of the cytosolic enzyme lactate dehydrogenase (LDH).
Selected compounds of the present invention were tested by one or more of the above-described assays. The IC50 values set forth in Tables 1 and 2 are a measure of the concentration (μM) of the test substance which inhibits 50% of an induced release from the tested receptors.

[3] = molecular target: T1, glycine site of the NMDA receptor (Rattus norvegicus, UniProt P35439); experiment: Glycine site of the NMDA receptor binding affinity (Jones et al.)
T1 construct: from tissue

AMPA receptors = experiment: AMPA receptor binding affinity (Honore et al.)
[4] = Table 1, cyclohexyl-fused analogs
[5] = Table 2, cyclopentyl-fused analogs

| IC50 [1, 4] | IC50 [3, 4] | IC50 (AMPA receptors; [4]) | IC50 [1, 5] | IC50 [3, 5] | IC50 (AMPA receptors; [5]) | SMILES | IC50 [2, 4] | IC50 [2, 5] |
| --- | --- | --- | --- | --- | --- | --- | --- | --- |
| 2.8 µM | 1.8 µM | 0.7 µM |  |  |  | NC1CCc2c([N+](=O)[O-])cc3[nH]c(=O)c(=O)[nH]c3c2C1 (stereo not drawn) [Example 15, 9-amino-6-nitro-1,4,7,8,9,10-hexahydro-benzo[f]quinoxaline-2,3-dione] | 20 µM |  |
| 2.2 µM | 0.62 µM | 0.56 µM |  |  |  | CC(=O)NC1CCc2c([N+](=O)[O-])cc3[nH]c(=O)c(=O)[nH]c3c2C1 (stereo not drawn) [Example 17, N-(6-nitro-2,3-dioxo-1,2,3,4,7,8,9,10-octahydro-benzo[f]quinoxalin-9-yl)-acetamide] | > 30 µM |  |
| 0.9 µM | 0.09 µM | 0.42 µM |  |  |  | O=C(NC1CCc2c([N+](=O)[O-])cc3[nH]c(=O)c(=O)[nH]c3c2C1)c1ccccc1 (stereo not drawn) [Example 36, N-(6-nitro-2,3-dioxo-1,2,3,4,7,8,9,10-octahydrobenzo[f]quinoxalin-9-yl)-benzamide] | 30 µM |  |
|  |  |  | 0.48 µM | 0.4 µM | 0.11 µM | O=C(NC1Cc2c([N+](=O)[O-])cc3[nH]c(=O)c(=O)[nH]c3c2C1)c1ccccc1 (stereo not drawn) [Example 39, N-(6-nitro-2,3-dioxo-4,7,8,9-tetrahydro-1H-cyclopenta[f]quinoxalin-8-yl)-benzamide] |  | 18 µM |
| 0.82 µM | 0.28 µM | 0.27 µM |  |  |  | O=C(NC1CCc2c([N+](=O)[O-])cc3[nH]c(=O)c(=O)[nH]c3c2C1)C1CCNCC1 (stereo not drawn) [Example 40, 4-(6-nitro-2,3-dioxo-1,2,3,4,7,8,9,10-octahydrobenzo[f]quinoxaline-9-ylcarbamoyl)-piperidine hydrochloride] | 25 µM |  |
|  |  |  | 0.38 µM | > 1 µM | 0.14 µM | O=C(NC1Cc2c([N+](=O)[O-])cc3[nH]c(=O)c(=O)[nH]c3c2C1)c1ccoc1 (stereo not drawn) [Example 59, Furan-3-carboxylic acid (6-nitro-2,3-dioxo-2,3,4,7,8,9-hexahydro-1H-cyclopenta[f]quinoxalin-8-yl)-amide] |  | 14 µM |
|  |  |  | 0.36 µM | 0.4 µM | 0.1 µM | O=C(NC1Cc2c([N+](=O)[O-])cc3[nH]c(=O)c(=O)[nH]c3c2C1)c1ccsc1 (stereo not drawn) [Example 60, Thiophene-3-carboxylic acid (6-nitro-2,3-dioxo-2,3,4,7,8,9-hexahydro-1H-cyclopenta[f]quinoxalin-8-yl)amide] |  | 14 µM |
|  |  |  | 1.03 µM | > 1 µM | 0.2 µM | O=C(NC1Cc2c([N+](=O)[O-])cc3[nH]c(=O)c(=O)[nH]c3c2C1)c1cccnc1 (stereo not drawn) [Example 61, N-(6-Nitro-2,3-dioxo-2,3,4,7,8,9-hexahydro-1H-cyclopenta[f]quinoxalin-8-yl)-nicotinamide] |  | 28 µM |
|  |  |  | 1.1 µM | > 1 µM | 0.58 µM | O=C(NC1Cc2c([N+](=O)[O-])cc3[nH]c(=O)c(=O)[nH]c3c2C1)C1(O)OC(O)C(O)C1O (stereo not drawn) [Example 63, 2,3,4,5-Tetrahydroxy-tetrahydro-furan-2-carboxylic acid (6-nitro-2,3-dioxo-2,3,4,7,8,9-hexahydro-1H-cyclopenta[f]quinoxalin-8-yl)-amide] |  | > 30 µM |
